Like-named read-outs stand apart in the source and are kept apart here. Bounds are passed on as bounds.

The conditions of series [1]: cited from earlier work.
For series [2], the system named is Staphylococcus aureus (ATCC 6538). Description: Minimal concentration for total antimicrobial activity, AOAC method 955.15 (Phenol Coefficient Method). The class given is cell-based. The note with it: agent incorporated into formulation F, contact time 10 minutes. How it is done: The minimum concentration at which a total antimicrobial activity could be observed is determined for selected phenolic compounds of natural origin and selected essential oils using the AOAC method 955.15 (“Phenol Coefficient Method”) with minor modifications. Different concentrations of essential oils and phenolic compounds of natural origin are incorporated into formulation F (see table hereinbelow) and inoculated with a 0.05% bacterial suspension of Staphylococcus aureus (ATCC 6538; concentration of about 8 logs). After a contact time of 10 minutes, 0.1 ml of the inoculated solution is transferred to a broth culture with neutralizing (Difco 268110) and incubated over a period of 72 hours at 37° C. The presence of turbidity in the broth culture is indicative of the survival of the microorganism

Take `OCCCO` [1,3-Propanediol]: the “LD50 Oral-rat” value in series [1] (ingredients of Formulation 1) is reported as >15 000 mg/kg.

On to `CC(C)=CCCC(C)=CC=O` [Citral], for which the “Minimal Concentration” value in series [2] was more than 1% v/v %. For the molecule `Cc1ccc(C(C)C)c(O)c1` [Thymol], the “Minimal Concentration” value in series [2] was 0.07 v/v %. In the case of `COCC(C)O` (centres unmarked) [Glycol Ether PM], the “LD50 Oral-rat” value in series [1] (ingredients of Formulation 1) was 5 210 mg/kg.

On to `C=O` [Formaldehyde], for which, in series [1] (rat, in vivo, po), the LD50 entry is “of 100 mg/Kg” and the “LD50 Oral-rat” value is listed as 100 mg/kg. Besides, the Toxicity entry in series [1] (rat, in vivo) is given as “Toxic”.

For Sodium Laureth Sulfate, the “LD50 Oral-rat” value in series [1] (ingredients of Formulation 1) is listed as more than 5000 mg/kg.

On to `CCCCCCCCCCCCCCCC[N+](C)(C)CC(=O)[O-]` [Cetyl Betaine], for which the “LD50 Oral-rat” value in series [1] (ingredients of Formulation 1) was 1620 mg/kg. Consider `C=CCc1ccc(O)c(OC)c1` [Eugenol], for which, in series [2], the “Minimal Concentration” value came to 0.4 v/v %.

`Cc1ccc(C(C)C)cc1O` [Carvacrol]: the “Minimal Concentration” value in series [2] was 0.07 v/v %.

(Values after US20190274952A1, “TOPICAL USE OF AN ANTIMICROBIAL FORMULATION” (priority 2013, published 2019).)
